Our source for the IC50 values is patent US20080293712A1, “Benzo[C][2,7]Naphtyridine Derivatives, Methods of Making Thereof and Methods of Use Thereof” (WYETH, priority 2007, published 2008).

Where only a bound is given, the exact number is not on record here.

Common to all, as to type: biochemical
For one experiment, the target named is Akt1 (Homo sapiens, UniProt P31749). Kind of experiment: Akt1 kinase inhibition, Z'-LYTE FRET assay. The settings on record: 100 μM ATP. The method, boiled down: (§1)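 Z'-LYTE FRET format: kinase phosphorylates fluorophore-labelled peptide with ATP, then protease cleaves only non-phosphorylated peptide. Phosphorylation calculated from donor (460 nm)/acceptor (535 nm) emission ratio after 400 nm excitation; IC50 values derived.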

Another experiment addresses PKA (Homo sapiens, UniProt P17612). Kind of experiment: PKA kinase inhibition, Z'-LYTE FRET assay.
The target in a further experiment is T1, PDK-1 (Homo sapiens, UniProt O15530).
T1 sequence (O15530 1-556): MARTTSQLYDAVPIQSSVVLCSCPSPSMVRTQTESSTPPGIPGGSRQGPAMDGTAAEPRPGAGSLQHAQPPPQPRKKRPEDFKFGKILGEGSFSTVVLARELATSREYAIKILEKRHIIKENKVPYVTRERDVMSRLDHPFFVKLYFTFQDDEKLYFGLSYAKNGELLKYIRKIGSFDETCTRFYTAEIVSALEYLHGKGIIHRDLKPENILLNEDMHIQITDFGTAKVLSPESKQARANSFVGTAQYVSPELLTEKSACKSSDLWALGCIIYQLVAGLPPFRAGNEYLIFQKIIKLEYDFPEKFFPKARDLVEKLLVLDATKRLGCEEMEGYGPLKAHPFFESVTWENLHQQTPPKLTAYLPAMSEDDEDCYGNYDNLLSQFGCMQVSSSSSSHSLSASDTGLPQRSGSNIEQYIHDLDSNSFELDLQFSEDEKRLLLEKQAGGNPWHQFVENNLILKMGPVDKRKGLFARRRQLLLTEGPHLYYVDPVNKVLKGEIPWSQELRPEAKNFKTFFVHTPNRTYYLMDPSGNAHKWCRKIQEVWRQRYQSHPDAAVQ
In words: PDK-1 kinase inhibition ELISA assay (phosphorylation of His6-tagged SGK1 S422D by PDK-1). To be noted: PDK-1 ELISA, Table 11; read-out: Average IC50. In general terms: ELISA stands for enzyme-linked immunosorbent assay.

Experiment [1] addresses T2, human PKCθ full length enzyme (Homo sapiens, UniProt Q04759).
T2 construct: human PKCθ full length enzyme; purchased Panvera, Madison, Wis., now Invitrogen, Carlsbad, Calif; P2996
Kind of experiment: PKCθ kinase inhibition, IMAP fluorescence polarization assay. To be noted: 6 μM ATP. From the text: The ability of illustrative Benzo[c][2,7]naphthyridine Derivatives to inhibit PKCθ can be determined using an IMAP Assay (Molecular Devices Corporation, Sunnyvale, Calif.). The materials used include the following: human PKCθ full length enzyme (Panvera, Madison, Wis., now Invitrogen, Carlsbad, Calif., Cat. No. P2996); substrate peptide: 5FAM-[…]-OH (Molecular Devices, Cat. No. RP7032); ATP (Sigma-Aldrich, St. Louis, Mo., Sigma Cat. No. A2383); DTT (e.g., Pierce, now Fisher Scientific, Waltham, Mass., Pierce Cat. No. 20291); 5× kinase reaction buffer (Molecular Devices, Cat. No. R7209); 5× binding buffer A (Molecular Devices, Cat. No. R7282), 5× binding buffer B (Molecular Devices, Cat. No. R7209); IMAP Beads (Molecular Devices, Cat. No. R7284); and 384-well plates (Corning Costar, Acton, Mass., Cat. No. 3710). The reaction buffer is prepared by diluting the 5× stock reaction buffer and adding DTT to obtain a concentration of 3.0 mM. The binding buffer is prepared by diluting the 5× binding buffer A. A master mix solution is prepared using a 90% dilution of the reaction buffer containing 2×ATP (12 μM) and 2× peptide (200 nM). […] The final concentration of compound is 2× and 10% DMSO. DMSO is added to the rest of the master mix to increase the concentration to 10%. 10 μl of the master mix containing 10% DMSO is added to the rest of the wells on the plate except the 2nd column. 20 μl is transferred from the first column to the 2nd column. The compounds are serially diluted in 2:1 ratio starting from the 2nd column. A 2× (2 nM) PKCθ solution is made in the reaction buffer. 10 μl of the PKCθ solution is added to every well to achieve these final concentrations: PKCθ—1 nM; ATP—6 μM; peptide—100 nM; DMSO—5%. Samples are incubated for 25 minutes at room temperature. The binding reagent is prepared by diluting the beads in 1× binding buffer to 800:1. 50 μl of the binding reagent is added to every well and incubated for 20 minutes. Fluorescence polarization is measured using EnVision™ 2100 multilabel reader (PerkinElmer Life Sciences, Wellesley, Mass.). Wells with no ATPs and wells with no enzymes are used as controls.
On the technique in general: In fluorescence polarisation assays a small probe gives low polarisation when free and higher when bound to something large.

For a further experiment, the target named is S6K (Homo sapiens, UniProt P23443). In words: S6K kinase inhibition, Z'-LYTE FRET assay. To be noted: 100 μM ATP. The method, boiled down: as §1
S6K, sequence (P23443 whole entry): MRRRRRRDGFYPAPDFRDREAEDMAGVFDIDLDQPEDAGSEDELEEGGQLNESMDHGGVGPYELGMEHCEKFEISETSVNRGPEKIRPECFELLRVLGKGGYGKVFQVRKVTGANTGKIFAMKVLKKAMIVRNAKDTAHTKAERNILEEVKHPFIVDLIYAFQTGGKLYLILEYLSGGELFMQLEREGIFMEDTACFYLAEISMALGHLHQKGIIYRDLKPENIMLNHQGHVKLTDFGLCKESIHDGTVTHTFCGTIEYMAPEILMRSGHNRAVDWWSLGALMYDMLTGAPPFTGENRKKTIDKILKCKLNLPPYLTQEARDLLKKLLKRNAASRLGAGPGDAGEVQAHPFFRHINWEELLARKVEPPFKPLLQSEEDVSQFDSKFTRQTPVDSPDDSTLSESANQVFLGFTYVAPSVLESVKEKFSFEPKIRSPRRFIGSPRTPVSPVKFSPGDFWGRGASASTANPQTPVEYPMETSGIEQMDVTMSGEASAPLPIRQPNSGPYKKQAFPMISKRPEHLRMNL

Akt1, sequence (P31749 whole entry, species assumed): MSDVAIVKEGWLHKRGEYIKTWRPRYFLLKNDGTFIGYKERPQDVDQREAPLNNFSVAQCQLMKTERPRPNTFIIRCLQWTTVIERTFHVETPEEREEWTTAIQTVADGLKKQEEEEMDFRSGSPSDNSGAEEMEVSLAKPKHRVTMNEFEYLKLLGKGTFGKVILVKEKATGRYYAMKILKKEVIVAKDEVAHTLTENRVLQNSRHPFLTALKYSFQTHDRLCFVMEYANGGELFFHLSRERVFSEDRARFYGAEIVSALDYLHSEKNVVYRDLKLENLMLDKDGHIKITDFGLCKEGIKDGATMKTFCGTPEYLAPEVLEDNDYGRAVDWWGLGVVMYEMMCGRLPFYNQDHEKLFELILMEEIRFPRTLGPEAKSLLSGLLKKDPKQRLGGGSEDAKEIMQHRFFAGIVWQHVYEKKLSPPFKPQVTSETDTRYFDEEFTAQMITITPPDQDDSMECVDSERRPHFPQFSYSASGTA
T2 sequence (Q04759 whole entry): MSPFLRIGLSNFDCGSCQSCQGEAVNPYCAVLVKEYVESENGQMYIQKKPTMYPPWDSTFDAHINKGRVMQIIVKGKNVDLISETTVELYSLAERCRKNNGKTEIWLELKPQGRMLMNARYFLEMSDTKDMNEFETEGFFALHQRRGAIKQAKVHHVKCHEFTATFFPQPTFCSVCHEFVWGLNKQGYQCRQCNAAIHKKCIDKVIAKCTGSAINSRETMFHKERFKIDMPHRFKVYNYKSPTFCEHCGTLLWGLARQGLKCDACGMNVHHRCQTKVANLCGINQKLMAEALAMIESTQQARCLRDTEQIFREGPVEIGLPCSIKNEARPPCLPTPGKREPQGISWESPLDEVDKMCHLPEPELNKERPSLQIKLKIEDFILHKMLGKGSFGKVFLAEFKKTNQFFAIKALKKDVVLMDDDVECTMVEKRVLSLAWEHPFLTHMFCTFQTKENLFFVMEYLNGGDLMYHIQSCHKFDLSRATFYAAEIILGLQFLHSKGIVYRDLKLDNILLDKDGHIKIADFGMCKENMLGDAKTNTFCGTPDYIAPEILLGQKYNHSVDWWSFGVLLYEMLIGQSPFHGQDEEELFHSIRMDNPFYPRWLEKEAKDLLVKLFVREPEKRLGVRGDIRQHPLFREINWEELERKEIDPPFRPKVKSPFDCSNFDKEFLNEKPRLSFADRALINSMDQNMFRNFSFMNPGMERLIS
From the text for PKA: Z′-Lyte™ assay is an in vitro FRET-based assay that utilizes differential sensitivity of phosphorylated and non-phosphorylated peptides to proteolytic cleavage. The peptide substrate (also available from Invitrogen for each of PKA, Akt1 and S6K) is labeled with two different fluorophores, a fluorescence donor at one end of the peptide and a fluorescence acceptor at the other end of the peptide. In the primary kinase reaction, the kinase phosphorylates the peptide substrate in the presence of ATP. In the secondary reaction, a site-specific protease recognizes and cleaves non-phosphorylated peptides, but not phosphorylated peptides. Cleavage disrupts FRET between the donor and acceptor fluorophores on the peptide, whereas uncleaved phosphorylated peptides maintain FRET. Based on a formula that uses the ratio of donor emission (at 460 nm) to acceptor emission (at 535 nM) after excitation of the donor fluorophore at 400 nm, the extent of phosphorylation of the peptide substrates is calculated.

In general, IC50 refers to the concentration that inhibits the measured activity by half. Consider `COCCOc1cc2ncc3c(N)nc(-c4cncc(OC[C@@H](N)Cc5ccccc5)c4)cc3c2cc1OC` [Ia-11, 2-(5-{[(2S)-2-amino-3-phenylpropyl]oxy}pyridin-3-yl)-9-methoxy-8-(2-methoxyethoxy)benzo[c]-2,7-naphthyridin-4-amine], for which the IC50 at Akt1 came out at 1 nM; on PKA (20 μM ATP) it was 38 nM; on PKA (100 μM ATP) it was 390 nM; on PDK-1, 12 nM; in experiment [1], 17 nM; against S6K, 34 nM.

Regarding `COc1cc2c(cc1OCCN1CCOCC1)ncc1c(N)nc(-n3ccnc3)cc12` [Ia-13, 2-(1H-imidazol-1-yl)-9-methoxy-8-(2-morpholinoethoxy)benzo[c][2,7]naphthyridin-4-amine], the IC50 on Akt1 is 70 nM; against PKA (20 μM ATP), more than 10000 nM; at PKA (100 μM ATP), more than 2000 nM; on PDK-1 it was 79 nM; in experiment [1] it was 121 nM; against S6K, 656 nM.

On to `CCOc1cc2ncc3c(N)nc(-n4ccnc4)cc3c2cc1N` [Ia-28, 8-Ethoxy-2-(1H-imidazol-1-yl)benzo[c]-2,7-naphthyridine-4,9-diamine], for which the IC50 against Akt1 is 360 nM; at PKA (100 μM ATP), more than 2000 nM; at PDK-1 it was 46 nM; in experiment [1] it was 135 nM; against S6K, 1090 nM.

Take `COCCOc1cc2ncc3c(N)nc(-n4ccnc4)cc3c2cc1OC` [Ia-48, 2-(1H-imidazol-1-yl)-9-methoxy-8-(2-methoxyethoxy)benzo[c]-2,7-naphthyridin-4-amine]: the IC50 on Akt1 is 200 nM; against PKA (20 μM ATP) it was more than 20000 nM; at PKA (100 μM ATP), more than 2000 nM; in experiment [1], 116 nM; at S6K, 1380 nM.

Take `COc1cc2ncc3c(N)nc(-c4cncc(OC[C@H](N)Cc5c[nH]c6ccccc56)c4)cc3c2cc1OC` [Ib-55, 2-(5-{[(2R)-2-amino-3-(1H-indol-3-yl)propyl]oxy}pyridin-3-yl)-8,9-dimethoxybenzo[c]-2,7-naphthyridin-4-amine]: the IC50 against Akt1 was 18 nM; at PKA (20 μM ATP), less than 80 nM; against PKA (100 μM ATP), 1320 nM; at PDK-1, 15 nM; in experiment [1] it was 3 nM; against S6K it was 254 nM.

For the molecule `COc1cc2ncc3c(N)nc(-c4cncc(OC[C@H](N)Cc5ccccc5)c4)cc3c2cc1OC` [Ib-56, 2-(5-{[(2R)-2-amino-3-phenylpropyl]oxy}pyridin-3-yl)-8,9-dimethoxybenzo[c]-2,7-naphthyridin-4-amine], the IC50 against Akt1 is 3 nM; against PKA (20 μM ATP) it was less than 160 nM; at PKA (100 μM ATP) it was 259 nM; in experiment [1], 4 nM; on S6K, 88 nM.

Turning to `COc1cc2ncc3c(N)nc(-c4cncc(O)c4)cc3c2cc1OC` [Ib-57, 5-(4-Amino-8,9-dimethoxybenzo[c]-2,7-naphthyridin-2-yl)pyridin-3-ol], the IC50 on Akt1 is 300 nM; against PKA (20 μM ATP), more than 20000 nM; against PKA (100 μM ATP), more than 2000 nM; at PDK-1, 57 nM; in experiment [1], 332 nM; at S6K, more than 2000 nM.

Take `COc1cc2ncc3c(N)nc(-c4cncc(O[C@@H]5CCNC5)c4)cc3c2cc1OC` [Ib-58, 8,9-dimethoxy-2-{5-[(3R)-pyrrolidin-3-yloxy]pyridin-3-yl}benzo[c]-2,7-naphthyridin-4-amine]: the IC50 against Akt1 is 60 nM; against PKA (20 μM ATP), 140 nM; against PKA (100 μM ATP), 1530 nM; at PDK-1, 66 nM; in experiment [1], 249 nM; at S6K, 355 nM.

With `COc1cc2ncc3c(N)nc(-c4cncc(O[C@H]5CCNC5)c4)cc3c2cc1OC` [Ib-59, 8,9-dimethoxy-2-{5-[(3S)-pyrrolidin-3-yloxy]pyridin-3-yl}benzo[c]-2,7-naphthyridin-4-amine], the IC50 at Akt1 is 290 nM; against PKA (20 μM ATP) it was 2000 nM; against PKA (100 μM ATP), more than 2000 nM; at PDK-1 it was 64 nM; in experiment [1] it was 592 nM; at S6K, 1240 nM.

As to `COc1cc2ncc3c(N)nc(-c4cncc(OC[C@@H](N)Cc5ccccc5)c4)cc3c2cc1OC` [Ib-62, 2-(5-{[(2S)-2-amino-3-phenylpropyl]oxy}pyridin-3-yl)-8,9-dimethoxybenzo[c]-2,7-naphthyridin-4-amine], the IC50 was less than 160 nM at Akt1; 23 nM on PKA (20 μM ATP); 146 to 497 nM against PKA (100 μM ATP); 10 nM on PDK-1; 29 nM in experiment [1]; 98 to 140 nM against S6K.
